Test system: AAV-A53T α-synuclein rat model
Experiment: Size of α-synuclein-positive aggregates in the striatum
Type: in vivo
Details: for maximum aggregate size measured: striatum
Description: Fixed tissue blocks were immersed in 30% sucrose for cryoprotection and sectioned frozen on a sliding microtome (30 μm section thickness for striatal sections; 40 μm section thickness for SN sections). Sections through the rostro-caudal extent of the SN were collected and every sixth section from the SN was processed for tyrosine hydroxylase (TH) immunohistochemistry to be used for stereological cell counting. Three striatal sections from approximately the level of the decussation of the anterior commissure in each case were processed for α-synuclein immunohistochemistry. For immunohistochemistry, sections were washed and permeabilized with PBS containing 0.2% Triton X-100. Endogenous peroxidase activity was quenched using 3% hydrogen peroxide in PBS containing 0.2% Triton X-100. Sections were then blocked in PBS/triton X-100 containing 10% normal goat serum and 2% BSA, followed by primary antibody incubation (TH (rabbit anti-TH, 1:2,000, Pel-Freez); α-synuclein (mouse anti-α-synuclein clone 211; 1:2000, Millipore) overnight at 4° C. The following day, sections were washed in PBS and incubated in biotinylated secondary antibody (goat-anti-rabbit 1:4000 for TH; goat-anti-mouse 1:2000 for α-synuclein 1:2000, VECTOR Laboratories), followed by additional washes and incubation in avidin biotin complex (VECTASTAIN Elite ABC system, VECTOR Laboratories). The reaction product was visualized with 3,3′-diaminobenzidine (DAB) (Immpact DAB, VECTOR Laboratories). Sections were then mounted, dehydrated, cleared and coverslipped. Sections stained for visualization of TH and to be used for stereological cell counting were counterstained with cresyl violet prior to coverslipping. […] Slides were coded and analyzed blindly. […] Cells were then counted at high power (100×) using a counting frame measuring 60 μm^2. […] This process was repeated for each section in the series for a given animal, and a total of 7-8 sections/animal were analyzed. Nissl-stained cells were counted concurrently in the same sections using the same sampling parameters. […]
Immunoblotting for α-synuclein expression was performed using the Wes western blot system (ProteinSimple). […] The sizes of α-synuclein-positive swelling/aggregates were measured in 3 fields (one medial, one central and one lateral) from 1 coronal section (at the approximate level of the decussation of the anterior commissure). Photographs were captured using a 40× objective on a Nikon Eclipse Ni microscope and α-synuclein-positive structures with an area >5 μm2 were considered as aggregates and were measured using Nikon MS Elements AR software. Data are presented as the distribution of aggregate sizes in the three striatal regions measured.

[1] = delayed start GM1 (3 weeks after AAV-A53T)
[2] = early start GM1 (24 hours after AAV-A53T)

## GM1 ganglioside
[1]
  size distribution of striatal α-synuclein-positive aggregates, GM1 vs saline: greater numbers of larger sized aggregates in the saline-treated group compared to the GM1 group
  maximum aggregate size measured: 29.3 μm^2
[2]
  size distribution of striatal α-synuclein-positive aggregates, GM1 vs saline: larger numbers of smaller sized aggregates and fewer larger sized aggregates
  maximum aggregate size measured: 28.8 μm^2

From US20220226357A1, “METHODS FOR TREATING NEURODEGENERATIVE DISORDERS” (THOMAS JEFFERSON UNIVERSITY, priority 2019, published 2022)
